The record followed here is patent US20240034753A1, “THERAPEUTIC PEPTIDES” (COHBAR, INC., priority 2020, published 2024).

Data set [1] relates to C2C12 Mouse Myoblasts. Put plainly: Glucose utilization (glucose remaining in medium). Type of data set: cell-based. The conditions noted are these: metformin 1 mM, 18-22 hours. The method, then: The effect of the peptides on glucose metabolism can be assessed using an assay of glucose utilization in cultured cells such as mouse myoblasts. Peptides were initially prepared as 10 mM stock in DMSO and used at a final concentration of 10 μM (0.1% DMSO). C2C12 mouse myoblast cell line was purchased from American Type Culture Collection (Manassas, VA). C2C12 cultures were maintained at 37° C. in a humidified atmosphere of 5% CO2/95% air with medium changes every second day. C2C12 cells were grown in DMEM (1 g/L glucose) supplemented with 10% FBS with 100 IU/ml penicillin and 100 μg/ml streptomycin. C2C12 cells were seeded at 7,000 cells per well on 96-well plates and cultured to confluence. Once the cell reached confluence the media was changed to DMEM (1 g/L glucose) supplemented with 2% HS with 100 IU/ml penicillin and 100 μg/ml streptomycin and maintained at 37° C. in a humidified atmosphere of 5% CO2/95% air. 5 days post-induction of differentiation fresh DMEM (1 g/L glucose) supplemented with 2% HS with 100 IU/ml penicillin and 100 μg/ml streptomycin was added to cultures. Cells were maintained at 37° C. in a humidified atmosphere of 5% CO2 and 95% air for 5 hours. After 5 hours test peptides at 10 μM or controls (0.5 mM or 1 mM metformin in 1% DMSO) prepared in fresh differentiation medium were added to cells and the cultures were maintained at 37° C. in a humidified atmosphere of 5% CO2/95% air for 18-22 hours. At the end of the incubation culture media was removed from the cells and the remaining glucose concentration was measured using a Glucose Assay kit (Abcam) according to the manufacturer's instructions, using a Cytation 3 plate reader at 570 nm (BioTek, Winooski, VT). Glucose concentrations in the medium were calculated relative to 0.1% DMSO treated control cells. The relative standard deviation of the result for the 0.1% DMSO treated control was <20%. Metformin was used as a positive control for reduction of glucose levels (increased glucose utilization glucose levels for treatment with metformin (1 mM) treatment were <20% of the 0.1% DMSO treated control value. The results are reported in Table 11.

Data set [2] can be described thus: PrestoBlue cell viability assay. Type of data set: cell-based. The following applies: human; read-out: Cell viability, % of background corrected DMSO control value. Here is the method: The effect of the peptides on cell viability can be assessed in cultured cells using suitable assay of viability such as the PrestoBlue® assay (Thermo Fisher Scientific, Waltham, MA). Peptides were initially prepared as 10 mM stock in DMSO and tested at a final concentration of 10 μM (0.1% DMSO). […] PrestoBlue Assay Reagent was purchased from Thermo Fisher Scientific. A172 human brain glioblastoma cell line was purchased from American Type Culture Collection (Manassas, VA). A172 cells were grown in DMEM supplemented with 10% FBS with 100 IU/ml penicillin and 100 μg/ml streptomycin. Cultures were maintained at 37° C. in a humidified atmosphere of 5% CO2/95% air. A172 cells were seeded at 8,000 cells per well on 96-well plates. […] Cell viability was determined using a PrestoBlue Assay reagent […] according to the manufacturer's instructions. Absorption for each sample well on the plate was measured using a Cytation 3 plate reader at 560 nm and 590 nm (BioTek, Winooski, VT). Activity was calculated relative to 0.1% DMSO untreated control. Treatment with 0.1% DMSO alone was used as the cell viability activity control. The relative standard deviation of the DMSO control was <5%.

For data set [3], the system named is SH-SY5Y Neuroblastoma Cells. Put plainly: ATP levels (CellTiter-Glo). Type of data set: cell-based, human. The conditions noted are these: staurosporine 1 μM, 18-20 hours. Here is the method:
The effect of the peptides on cellular metabolism can be assessed using an assay of ATP levels in cultured cells such as human neuroblastoma cells. Peptides were initially prepared as 10 mM stock in DMSO and used at a final concentration of 10 μM (0.1% DMSO). […] CellTiter-Glo® Assay kit was purchased from Promega. SH-SY5Y human bone marrow neuroblastoma cell line was purchased from American Type Culture Collection (Manassas, VA) and licensed from Memorial Sloan-Kettering Cancer Center (New York, NY). SH-SY5Y cells were grown in DMEM/F12 medium supplemented with 10% FBS with 100 IU/ml penicillin and 100 μg/ml streptomycin. Cultures were maintained at 37° C. in a humidified atmosphere of 5% CO2/95% air. SH-SY5Y cells were seeded at 30,000 cells per well on 96-well plates. […] ATP levels were determined using a CellTiter-Glo Assay kit (Promega) according to the manufacturer's instructions. Luminescence for each sample well on the plate was measured using a Cytation 3 plate reader (BioTek, Winooski, VT). Activity was calculated relative to 0.1% DMSO treated control. The relative standard deviation of the result for the 0.1% DMSO treated control was <5%.
In general terms: Cellular ATP, detected with luciferase, serves as a proxy for viable cell number.

In data set [4] the test system is 3T3-L1 Mouse Adipocytes. As to the kind of experiment: Free fatty acid levels in cultured mouse adipocytes stimulated with isoproterenol. The following applies: insulin 100 nM, 3 hours with 1 nM isoproterenol. It counts as cell-based. Here is the method:
The effect of the peptides on fatty acid metabolism can be assessed using an assay of free fatty acid levels in cultured cells such as mouse adipocytes. Peptides were initially prepared as 10 mM stock in DMSO and used at a final concentration of 10 μM (0.1% DMSO). […] Mouse 3T3-L1 cells purchased from ZenBio were seeded at 3,000 cells per well in 96-well plates in Pre-adipocyte Medium (Zen-Bio) and grown to confluence at 37° C. in a humidified atmosphere of 5% CO2/95% air. Two days after confluence, cells were placed in Adipocyte Differentiation Medium (Zen-Bio) and cultured for three additional days at 37° C. in a humidified atmosphere of 5% CO2/95% air. The culture media was then replaced with Adipocyte Maintenance Medium (Zen-Bio) and the cells maintained for an additional 9-12 days at 37° C. in a humidified atmosphere of 5% CO2/95% air with partial medium replacement every other day. Following 12-15 days of differentiation, test peptides were added at a final concentration of 10 μM in 0.1% DMSO and incubated for 20-22 hours in Adipocyte Maintenance Medium at 37° C. in a humidified atmosphere of 5% CO2/95% air. After 20-22 hours, 1 nM isoproterenol was added to all wells except untreated controls and test peptides were replenished. Insulin at 100 nM was added to control wells. Cells were incubated for 3 hours in Assay Buffer (Zen-Bio) at 37° C. in a humidified atmosphere of 5% CO2/95% air. Free fatty acid concentrations in the media were determined using a Free Fatty Acid Assay kit (Zen-Bio) according to the manufacturer's instructions using a Cytation 3 plate reader at 540 nm (BioTek, Winooski, VT). Absorbance values were corrected for untreated background and expressed relative to isoproterenol treated cells. Treatment with isoproterenol (1 nM) alone was used as the free fatty acid level stimulatory control. The relative standard deviation of the isoproterenol control was <10%. […] Free fatty acid levels for insulin (100 nM) treatment were <5% of the isoproterenol control value.

On to `CN(C)C(=N)N=C(N)N` [Metformin, reference compound], for which the “Glucose levels, % of the 0.1% DMSO treated control value” in data set [1] is on record as less than 20%.

For `CN[C@@H]1C[C@H]2O[C@@](C)([C@@H]1OC)n1c3ccccc3c3c4c(c5c6ccccc6n2c5c31)C(=O)NC4` [Staurosporine, reference compound], in data set [2], the viability (in general, a per cent measure of how many cells are alive, often set against a control) at 1 µM is less than 75%. Moreover, in data set [3], the “ATP levels, % of the 0.1% DMSO treated control value” is listed as less than 5%.

Turning to Insulin [reference compound], the “Free fatty acid levels, % of the isoproterenol control value” in data set [4] is recorded as less than 5%.
